Measurements taken from PubChem BioAssay AID330 (DTP/NCI, 2004).
Several values for one entry are separate records, joined by “and”; a condition that tells them apart may be missing. Equal values may be shown once. Toxic doses and inconclusive results are not listed. Peptide text beside a SMILES is read from it.

Test system: P388 leukemia ip, CD2F1 mice, survival T/C
Experiment: NCI In Vivo Anticancer Drug Screen. Data for tumor model P388 Leukemia (intraperitoneal) in CD2F1 (CDF1) mice
Conditions: endpoint: median survival time, higher = longer survival
Procedure, shortened: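 Mice carrying the transplanted tumor received test compound or vehicle. Survival was recorded in each group, and the value is the treated-group measurement divided by that of the vehicle-treated control group.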

[1] = dose: 12.5 mg/kg/injection, schedule: Q01DX005 (ip), vehicle: saline with Tween-80
[2] = dose: 25.0 mg/kg/injection, schedule: Q01DX005 (ip), vehicle: saline with Tween-80
[3] = dose: 50.0 mg/kg/injection, schedule: Q01DX005 (ip), vehicle: saline with Tween-80
[4] = dose: 100.0 mg/kg/injection, schedule: Q01DX005 (ip), vehicle: saline with Tween-80
[5] = dose: 200.0 mg/kg/injection, schedule: Q01DX005 (ip), vehicle: saline with Tween-80
[6] = dose: 60.0 mg/kg/injection, schedule: Q01DX005 (ip), vehicle: saline with Tween-80
[7] = dose: 120.0 mg/kg/injection, schedule: Q01DX005 (ip), vehicle: saline with Tween-80
[8] = dose: 240.0 mg/kg/injection, schedule: Q01DX005 (ip), vehicle: saline with Tween-80
[9] = dose: 60.0 mg/kg/injection, schedule: Q01DX005 (ip), vehicle: Klucel (hydroxypropylcellulose) (HPC)
[10] = dose: 120.0 mg/kg/injection, schedule: Q01DX005 (ip), vehicle: Klucel (hydroxypropylcellulose) (HPC)

CN1CCCC(CN2c3ccccc3Sc3ccccc32)C1 (stereo unspecified)
T/C [1]: 100 % of control | T/C [2]: 102 % of control | T/C [3]: 104 % of control and 105 % of control | T/C [4]: 111 % of control

Cn1c(=O)n(-c2ccccc2)c(=O)c2ccccc21
T/C (dose: 100.0 mg/kg/injection, schedule: Q01DX009 (ip), vehicle: Klucel (hydroxypropylcellulose) (HPC)): 100 % of control | T/C (dose: 200.0 mg/kg/injection, schedule: Q01DX009 (ip), vehicle: Klucel (hydroxypropylcellulose) (HPC)): 110 % of control | T/C (dose: 400.0 mg/kg/injection, schedule: Q01DX009 (ip), vehicle: Klucel (hydroxypropylcellulose) (HPC)): 109 % of control

O=C(Nc1ccccc1)OC(CS(=O)(=O)c1ccccc1)C(Cl)(Cl)Cl (stereo unspecified)
T/C [3]: 92 % of control | T/C [4]: 96 % of control | T/C [5]: 95 % of control

CCOC(=O)C1C(c2cccc(OC)c2O)c2cc3c(cc2OC1(C)N1CCCC1)OCO3 (stereo unspecified)
T/C [6]: 99 % of control | T/C [7]: 92 % of control | T/C [8]: 89 % of control

Cc1ccc(-n2c(N)c(C#N)c3c(c2=S)CCC3)cc1
T/C (dose: 50.0 mg/kg/injection, schedule: Q01DX005 (ip), vehicle: Klucel + Tween-80): 100 % of control | T/C (dose: 100.0 mg/kg/injection, schedule: Q01DX005 (ip), vehicle: Klucel + Tween-80): 107 % of control | T/C (dose: 200.0 mg/kg/injection, schedule: Q01DX005 (ip), vehicle: Klucel + Tween-80): 96 % of control

O=C1C2C3C=CC(O3)C2C(=O)N1O (stereo unspecified)
T/C (dose: 3.13 mg/kg/injection, schedule: Q01DX009 (ip), vehicle: water): 102 % of control | T/C (dose: 6.25 mg/kg/injection, schedule: Q01DX009 (ip), vehicle: water): 112 % of control | T/C (dose: 12.5 mg/kg/injection, schedule: Q01DX009 (ip), vehicle: water): 121 % of control | T/C (dose: 25.0 mg/kg/injection, schedule: Q01DX009 (ip), vehicle: water): 118 % of control | T/C (dose: 50.0 mg/kg/injection, schedule: Q01DX009 (ip), vehicle: water): 105 % of control

CC(N)C(=O)NC(Cc1ccc(O)cc1)C(=O)NC(Cc1ccccc1)C(N)=O (stereo not drawn) (H-Ala-Tyr-Phe-NH2; configuration not given here)
T/C (dose: 50.0 mg/kg/injection, schedule: Q01DX005 (ip), vehicle: saline): 102 % of control | T/C (dose: 100.0 mg/kg/injection, schedule: Q01DX005 (ip), vehicle: saline): 101 % of control | T/C (dose: 200.0 mg/kg/injection, schedule: Q01DX005 (ip), vehicle: saline): 101 % of control

CN1CCCC1c1ccc[n+](C)c1 (stereo unspecified)
T/C (dose: 50.0 mg/kg/injection, schedule: Q01DX009 (ip), vehicle: saline): 110 % of control and 108 % of control | T/C (dose: 100.0 mg/kg/injection, schedule: Q01DX009 (ip), vehicle: saline): 110 % of control and 105 % of control | T/C (dose: 200.0 mg/kg/injection, schedule: Q01DX009 (ip), vehicle: saline): 115 % of control and 113 % of control

CC(=Nc1ccc(S(=O)(=O)c2ccc(N=C(C)N3CCCCC3)cc2)cc1)N1CCCCC1
T/C [3]: 100 % of control | T/C [4]: 97 % of control | T/C [5]: 88 % of control

CCCCC(CCCCCC(CCCC)C1NCCc2cc(OC)c(OC)cc21)C1NCCc2cc(OC)c(OC)cc21 (stereo unspecified)
T/C (dose: 6.25 mg/kg/injection, schedule: Q01DX005 (ip), vehicle: saline with Tween-80): 91 % of control | T/C [1]: 93 % of control | T/C [2]: 93 % of control

CNC(=O)OCc1nc(-c2ccccc2)sc1COC(=O)NC
T/C (dose: 12.5 mg/kg/injection, schedule: Q01DX005 (ip), vehicle: distilled water + Tween-80): 94 % of control | T/C (dose: 25.0 mg/kg/injection, schedule: Q01DX005 (ip), vehicle: distilled water + Tween-80): 93 % of control

N=C=S.N=C=S.O=[N+]([O-])O.[Co+3].[NH2-].[NH2-].[NH2-].[NH2-]
T/C (dose: 50.0 mg/kg/injection, schedule: Q01DX009 (ip), vehicle: Klucel (hydroxypropylcellulose) (HPC)): 113 % of control

O=S(=O)(ON=C1C=CC(=NOS(=O)(=O)c2ccccc2)C=C1)c1ccccc1
T/C (dose: 25.0 mg/kg/injection, schedule: Q04DX003 (ip), vehicle: Klucel (hydroxypropylcellulose) (HPC)): 107 % of control and 94 % of control | T/C (dose: 50.0 mg/kg/injection, schedule: Q04DX003 (ip), vehicle: Klucel (hydroxypropylcellulose) (HPC)): 103 % of control and 87 % of control and 94 % of control | T/C (dose: 100.0 mg/kg/injection, schedule: Q04DX003 (ip), vehicle: Klucel (hydroxypropylcellulose) (HPC)): 94 % of control | T/C (dose: 200.0 mg/kg/injection, schedule: Q04DX003 (ip), vehicle: Klucel (hydroxypropylcellulose) (HPC)): 99 % of control and 100 % of control | T/C (dose: 400.0 mg/kg/injection, schedule: Q04DX003 (ip), vehicle: Klucel (hydroxypropylcellulose) (HPC)): 116 % of control

CCOC(=O)Cn1/c(=N/N=C(\C)c2ccc([N+](=O)[O-])o2)sc2cc(Cl)ccc21
T/C [9]: 102 % of control | T/C [10]: 106 % of control and 96 % of control | T/C (dose: 240.0 mg/kg/injection, schedule: Q01DX005 (ip), vehicle: Klucel (hydroxypropylcellulose) (HPC)): 101 % of control and 91 % of control

COc1cc([N+](=O)[O-])cc(/C=C(\C)C2SC(C)(C)C(C)CN2C)c1O (stereo unspecified)
T/C (dose: 100.0 mg/kg/injection, schedule: Q04DX003 (ip), vehicle: saline with Tween-80): 109 % of control | T/C (dose: 200.0 mg/kg/injection, schedule: Q04DX003 (ip), vehicle: saline with Tween-80): 103 % of control | T/C (dose: 400.0 mg/kg/injection, schedule: Q04DX003 (ip), vehicle: saline with Tween-80): 100 % of control

CCCCCCCCCCNC(=O)C[n+]1cccc(C(=O)NCc2ccccc2)c1
T/C (dose: 3.13 mg/kg/injection, schedule: Q01DX009 (ip), vehicle: saline with Tween-80): 100 % of control | T/C (dose: 6.25 mg/kg/injection, schedule: Q01DX009 (ip), vehicle: saline with Tween-80): 95 % of control | T/C (dose: 12.5 mg/kg/injection, schedule: Q01DX009 (ip), vehicle: saline with Tween-80): 90 % of control

COc1ccc(C(=O)NO)cc1
T/C (dose: 50.0 mg/kg/injection, schedule: Q01DX009 (ip), vehicle: saline with Tween-80): 109 % of control | T/C (dose: 100.0 mg/kg/injection, schedule: Q01DX009 (ip), vehicle: saline with Tween-80): 102 % of control | T/C (dose: 200.0 mg/kg/injection, schedule: Q01DX009 (ip), vehicle: saline with Tween-80): 109 % of control | T/C (dose: 400.0 mg/kg/injection, schedule: Q01DX009 (ip), vehicle: saline with Tween-80): 115 % of control

Nc1ncnc2c1ncn2CC(O)CN(CCO)CCO (stereo unspecified)
T/C (dose: 60.0 mg/kg/injection, schedule: Q01DX005 (ip), vehicle: saline): 97 % of control | T/C (dose: 120.0 mg/kg/injection, schedule: Q01DX005 (ip), vehicle: saline): 95 % of control | T/C (dose: 240.0 mg/kg/injection, schedule: Q01DX005 (ip), vehicle: saline): 96 % of control

Cc1coc2c3c(ccc12)OC(C)(C)C=C3
T/C (dose: 100.0 mg/kg/injection, schedule: Q01DX001 (ip), vehicle: saline with Tween-80): 102 % of control | T/C (dose: 200.0 mg/kg/injection, schedule: Q01DX001 (ip), vehicle: saline with Tween-80): 104 % of control

CCOCC(=O)N[C@H]1CCc2cc(OC)c(OC)c(OC)c2-c2ccc(OC)c(=O)cc21
T/C (dose: 0.31 mg/kg/injection, schedule: Q01DX009 (ip), vehicle: water): 150 % of control | T/C (dose: 0.63 mg/kg/injection, schedule: Q01DX009 (ip), vehicle: water): 171 % of control | T/C (dose: 1.25 mg/kg/injection, schedule: Q01DX009 (ip), vehicle: water): 198 % of control and 221 % of control

CC(C)=NNC(=O)CNc1cccc(C(F)(F)F)c1
T/C [6]: 97 % of control | T/C [7]: 100 % of control | T/C [8]: 106 % of control

CCC(=O)OC1C2(O)C(OC(=O)C(C)C)C3(C)CC24OC2(C)OC15C1CC(=O)OC(c6ccoc6)C1(C)CCC5(O2)C4(C)C3CC(=O)OC (stereo unspecified)
T/C (dose: 0.37 mg/kg/injection, schedule: Q01DX009 (ip), vehicle: Klucel (hydroxypropylcellulose) (HPC)): 108 % of control | T/C (dose: 0.75 mg/kg/injection, schedule: Q01DX009 (ip), vehicle: Klucel (hydroxypropylcellulose) (HPC)): 101 % of control | T/C (dose: 1.5 mg/kg/injection, schedule: Q01DX009 (ip), vehicle: Klucel (hydroxypropylcellulose) (HPC)): 102 % of control | T/C (dose: 3.0 mg/kg/injection, schedule: Q01DX009 (ip), vehicle: Klucel (hydroxypropylcellulose) (HPC)): 96 % of control

CC(C)(C)N(Cc1ccccc1)C(O)Cc1c(-c2ccccc2)c(-c2ccccc2)c2n1CCC2 (stereo unspecified)
T/C [9]: 89 % of control | T/C [10]: 88 % of control

CN(C)/C=C\c1c([N+](=O)[O-])ncn1C
T/C [3]: 99 % of control | T/C [4]: 99 % of control | T/C [5]: 97 % of control

O=C(N/N=C/c1cc(Br)ccc1[O-])c1ccccc1O.O=C(N/N=C/c1cc(Br)ccc1[O-])c1ccccc1O.[Co+2]
T/C (dose: 100.0 mg/kg/injection, schedule: Q04DX002 (ip), vehicle: Klucel (hydroxypropylcellulose) (HPC)): 90 % of control | T/C (dose: 200.0 mg/kg/injection, schedule: Q04DX002 (ip), vehicle: Klucel (hydroxypropylcellulose) (HPC)): 90 % of control
